Laboratory results from patent US5190741A, “Agents for diagnosing and treating melanomas, aromatic halogenated derivatives usable as such agents and their preparation” (Institut National de la Sante et de la Recherche Medicale …, priority 1989, dated 1993).
Where two headings read alike, the source gives them in different places.

Experiments:
[1] = tested on: B16 murine melanoma; experiment: Tissue distribution in C57 BL6 mice bearing B16; type: in vivo, mouse; conditions: mouse, in vivo
Experimental: (§1) The study of the tissue distribution of the ^125 I labelled compounds was performed in mice bearing grafted melanomas (cf. autoradiograms above). […] The animals are sacrificed at different time intervals of 1 to 24 hours after the injection. The blood is collected and the principal organs are excised. Aliquots are weighed and the radioactivity of the samples is measured in a […] 1191 counter (analytic tracer). The counting yield for iodine 125 is 60%. The results are expressed: as a percentage of the injected dose bound per g of tissue (% ID/g); in the form of the ratios [formula] This ratio reflects more precisely the selectivity of a molecule for an organ (tables 2, 4, 6, 8, 10 and 12).

[2] = Tissue distribution in Swiss nu/nu SSCUP mice bearing Dau; type: in vivo, human; conditions: mouse, iv, 3 umol/animal
Experimental: as §1

[3] = tested on: B16 melanoma; experiment: Scintillation imaging, C57 BL6 mice bearing B16; type: in vivo, mouse; conditions: ^123 I label
Source text: (§2) The mice bearing grafted tumors are anesthetized by the i.p. injection of sodium pentobarbital 1/5 and immobilized under a scintillation camera (Gammatome II, CGR) equipped with a pinhole 3-360 collimator, sensitivity 3.2 10^-4.
C57 BL6 bearing B16 melanomas at different stages of development.
(§3) The scanning observations have also been carried out after the injection of B into the following mice:
C57 BL6 bearing the B16 melanoma

[4] = tested on: Beu melanic human melanoma; experiment: Scintillation imaging, nu/nu SSCUP nude mice bearing Beu; type: in vivo; conditions: ^123 I label
Source text: as §2
nu/nu SSCUP nudes bearing human melanomas Beu and Dau.
as §3
nu/nu SSCUP nudes bearing the Beu heterotransplant.

[5] = intestine, read-out: intestine % ID/g
[6] = kidney, read-out: kidney % ID/g
[7] = muscle, read-out: muscle % ID/g
[8] = pancreas, read-out: pancreas % ID/g
[9] = plasma, read-out: plasma % ID/g
[10] = spleen, read-out: spleen % ID/g
[11] = stomach, read-out: stomach % ID/g
[12] = submaxillary glands, read-out: submaxillary glands % ID/g

## CCN(CC)CCNC(=O)c1ccc(I)cc1 [Derivative A, N-(2-diethylaminoethyl) 4-iodo benzamide]
[1]
  marker of the B16 murine melanoma: markers of the B16 murine melanoma
[2]; blood, read-out: blood % ID/g
  tissue uptake at 1 h: 0.89 %ID/g
  tissue uptake at 2 h: 0.52 %ID/g
  tissue uptake at 4 h: 0.29 %ID/g
  tissue uptake at 6 h: 0.23 %ID/g
  tissue uptake at 24 h: 0.008 %ID/g
  tissue uptake at 8 h: 0.14 %ID/g
  tissue uptake at 12 h: 0.06 %ID/g
[2]; brain, read-out: brain % ID/g
  tissue uptake at 1 h: 1.4 %ID/g
  tissue uptake at 2 h: 0.99 %ID/g
  tissue uptake at 4 h: 0.51 %ID/g
  tissue uptake at 6 h: 0.2 %ID/g
  tissue uptake at 24 h: 0.002 %ID/g
  tissue uptake at 8 h: 0.12 %ID/g
  tissue uptake at 12 h: 0.02 %ID/g
[2]; eye, read-out: eye % ID/g
  tissue uptake at 1 h: 0.68 %ID/g
  tissue uptake at 2 h: 0.54 %ID/g
  tissue uptake at 4 h: 0.31 %ID/g
  tissue uptake at 6 h: 0.16 %ID/g
  tissue uptake at 24 h: 0.02 %ID/g
  tissue uptake at 8 h: 0.1 %ID/g
  tissue uptake at 12 h: 0.04 %ID/g
[2]; [5]
  tissue uptake at 1 h: 3.74 %ID/g
  tissue uptake at 2 h: 2.67 %ID/g
  tissue uptake at 4 h: 1.1 %ID/g
  tissue uptake at 6 h: 0.42 %ID/g
  tissue uptake at 8 h: 0.38 %ID/g
  tissue uptake at 12 h: 0.27 %ID/g
  tissue uptake at 24 h: 0.01 %ID/g
[2]; [6]
  tissue uptake at 1 h: 8.39 %ID/g
  tissue uptake at 2 h: 5.12 %ID/g
  tissue uptake at 4 h: 2.15 %ID/g
  tissue uptake at 6 h: 0.78 %ID/g
  tissue uptake at 24 h: 0.03 %ID/g
  tissue uptake at 8 h: 0.32 %ID/g
  tissue uptake at 12 h: 0.14 %ID/g
[2]; liver, read-out: liver % ID/g
  tissue uptake at 1 h: 5.68 %ID/g
  tissue uptake at 2 h: 3.35 %ID/g
  tissue uptake at 4 h: 2.1 %ID/g
  tissue uptake at 6 h: 1.1 %ID/g
  tissue uptake at 24 h: 0.1 %ID/g
  tissue uptake at 8 h: 0.71 %ID/g
  tissue uptake at 12 h: 0.3 %ID/g
[2]; lungs, read-out: lungs % ID/g
  tissue uptake at 1 h: 6.88 %ID/g
  tissue uptake at 2 h: 5.63 %ID/g
  tissue uptake at 4 h: 2.84 %ID/g
  tissue uptake at 6 h: 0.76 %ID/g
  tissue uptake at 8 h: 0.45 %ID/g
  tissue uptake at 12 h: 0.11 %ID/g
  tissue uptake at 24 h: 0.02 %ID/g
[2]; [7]
  tissue uptake at 1 h: 1.28 %ID/g
  tissue uptake at 2 h: 0.79 %ID/g
  tissue uptake at 4 h: 0.32 %ID/g
  tissue uptake at 6 h: 0.11 %ID/g
  tissue uptake at 24 h: 0.006 %ID/g
  tissue uptake at 8 h: 0.07 %ID/g
  tissue uptake at 12 h: 0.02 %ID/g
[2]; [8]
  tissue uptake at 1 h: 4.06 %ID/g
  tissue uptake at 2 h: 2.29 %ID/g
  tissue uptake at 4 h: 0.97 %ID/g
  tissue uptake at 6 h: 0.41 %ID/g
  tissue uptake at 8 h: 0.24 %ID/g
  tissue uptake at 12 h: 0.13 %ID/g
  tissue uptake at 24 h: 0.03 %ID/g
[2]; [9]
  tissue uptake at 1 h: 0.55 %ID/g
  tissue uptake at 2 h: 0.33 %ID/g
  tissue uptake at 4 h: 0.24 %ID/g
  tissue uptake at 6 h: 0.24 %ID/g
  tissue uptake at 24 h: 0.007 %ID/g
  tissue uptake at 8 h: 0.15 %ID/g
  tissue uptake at 12 h: 0.06 %ID/g
[2]; [10]
  tissue uptake at 1 h: 3.48 %ID/g
  tissue uptake at 2 h: 1.95 %ID/g
  tissue uptake at 4 h: 0.8 %ID/g
  tissue uptake at 6 h: 0.3 %ID/g
  tissue uptake at 8 h: 0.16 %ID/g
  tissue uptake at 12 h: 0.07 %ID/g
  tissue uptake at 24 h: 0.02 %ID/g
[2]; [11]
  tissue uptake at 1 h: 2.32 %ID/g
  tissue uptake at 2 h: 1.85 %ID/g
  tissue uptake at 4 h: 1.36 %ID/g
  tissue uptake at 6 h: 1.17 %ID/g
  tissue uptake at 8 h: 0.71 %ID/g
  tissue uptake at 12 h: 0.38 %ID/g
  tissue uptake at 24 h: 0.03 %ID/g
[2]; [12]
  tissue uptake at 1 h: 4.75 %ID/g
  tissue uptake at 2 h: 3.56 %ID/g
  tissue uptake at 4 h: 1.5 %ID/g
  tissue uptake at 6 h: 0.86 %ID/g
  tissue uptake at 8 h: 0.77 %ID/g
  tissue uptake at 12 h: 0.3 %ID/g
  tissue uptake at 24 h: 0.02 %ID/g
[2]; tumor, read-out: tumor % ID/g
  tissue uptake at 1 h: 1.51 %ID/g
  tissue uptake at 2 h: 1.29 %ID/g
  tissue uptake at 4 h: 0.45 %ID/g
  tissue uptake at 6 h: 0.23 %ID/g
  tissue uptake at 24 h: 0.009 %ID/g
  tissue uptake at 8 h: 0.11 %ID/g
  tissue uptake at 12 h: 0.07 %ID/g
[2]; tumor, only during the 2 hours following injection, Dau, read-out: intratumoral concentration
  tissue uptake: > 1 %ID/g
[3]
  images compared with ^125 I-A: identical images
[4]
  images compared with ^125 I-A: identical images
